This is an account of results in US12414937B2, “Local and regional anesthesia and analgesia” (UNIVERSITY OF LOUISVILLE RESEARCH FOUNDATION, INC., priority 2015, dated 2025).

The test system of data set [1] is isolated human DRG Neurons. As to the kind of experiment: Live cell calcium imaging with electric field stimulation. The class given is cell-based. How it is done: Live cell calcium imaging studies were conducted on isolated human DRG Neurons from post mortem donors. Cells were loaded with 3 uM Fluo 8-AM (AAT Bioquest 21081) containing 0.1% Pluronic F-127 (Sigma P2443) for 20 min. The extracellular solution contained in mM (Sigma): 145 NaCl (S3014), 3 KCl (P3911), 2 CaCl2) (C3881), 1 MgCl2 (M9272), 10 HEPES (H3375), 10 glucose (G5767) adjusted to pH 7.4 with NaOH (72068). Fluo-8-loaded cells were excited at 480 nm and emission was collected at 520 nm with a pcoEDGE sCMOS camera (PCO) mounted on an inverted microscope (Olympus IX71).
For Electric Field stimulation (EFs), images were acquired at 100 Hz for 2.5 sec applying simultaneously a train of 10 pulses (5 Hz, 10 ms). After the recording of the baseline profile at Low (1.5 to 2.0 V) and High (2.5 to 3.0 V) Voltage, a pre incubation of […] of the inhibitor is applied to the well before repeating the EFs procedure (Atip 100 uM, Atip 300 uM, Lidocaine 200 uM (Sigma L7757)). The cells that had less than 50% of the pulse response vs the baseline condition was considered inhibited. A washout of 10 min by perfusion was performed after the last EFs procedure.
Lidocaine was first prepared in stock solution using Ethanol (Sigma 459844), Atip was prepared in stock solution using DMSO (Sigma D8418). Image acquisition and data analysis were performed using MetaMorph software (Molecular Devices).
Neurons with less than 50% of the baseline response to electrical field stimulation were considered inhibited. 300 uM Atip blocked activity in 100% of the cells; 100 uM Atip achieved a 62% blockade.

For data set [2], the system named is sensory axons (Dorsal Root). As to the kind of experiment: Compound action potential (CAP) conduction block, sensory CAP recorded at dorsal root, drug applied to lumbar plexus exposure. The class given is in vivo, rats. An excerpt:
(§1) A surgical preparation was used to determine whether Atip acts differently on sensory or motor neurons. The procedures used were similar to those described in Petruska et al., 1998 (Experimental Brain Research 121:379-390). Briefly, adult rats received general anesthesia with ketamine/xylazine. The jugular vein, carotid artery, and trachea were intubated for the purposes of administering supplementary anesthesia, monitoring of blood pressure, and measuring end-expired CO2, respectively. Normal body temperature was maintained within 1° C. via a water-based thermal blanket. […]
(§2) Compound action potentials (CAPs) were generated by stimulating the sciatic nerve branches. The CAPs propagated centrally through the lumbar plexus to the dorsal and ventral roots where the sensory and motor CAPs (sCAP and mCAP) were detected with the recording electrodes. Effectiveness of conduction block was assessed by measuring the properties of the CAPs (peak and area) conducted through the lumbar plexus exposure and treated with drug compared to the CAPs in the control condition (vehicle or saline in the lumbar plexus exposure).
(§3) With reference to FIG. 2B, activity in response to electrical stimulation of the peroneal nerve was recorded from sensory and motor fascicles (20-30 sweeps averaged per time point). […]

The subject of data set [3] is motor axons (Ventral Root). Description: Compound action potential (CAP) conduction block, motor CAP recorded at ventral root, drug applied to lumbar plexus exposure. The class given is in vivo, rats. The conditions noted are these: Atip applied to the nerve; FIGS. 2A-3B together.
Text: as §1, §2, §3

Another data set concerns sensory axons. As to the kind of experiment: Sensory CAP recordings with IV-administered Atip after Dex. The class given is in vivo, rats. Particulars: doses indicated for use as α-2 AR antagonist.
In a further data set the test system is small sensory axons. Description: Nociceptive cutaneous trunk muscle reflex (CTMR) EMG on electrical stimulation of a treated sensory nerve. The class given is in vivo, rats. Particulars: sensory nerve treated with Atip 20 ul, 200 uM. How it is done: To address this, a different model system was used the cutaneous trunk muscle reflex (CTMR), which was previously developed and validated for use in anesthesiology and pain experimentation (4,5).
With reference to FIG. 3B, the effects of Atip on nociceptor sensory conduction are assessed using nociceptive CTM reflex as readout.
The CTMR in rats appears as a puckering or flicking of the back skin and is elicited only by noxious natural stimulation or by electrical stimulation of sufficient strength to recruit A-delta and C-fibers (4,6,7). Activation of only very few of these sensory axons is sufficient to elicit a CTMR, making the system a “natural amplifier” for small-diameter afferent input and resulting in reflex output detectible at the EMG and behavioral level (4,8).

In a further data set the test system is hTCEpi cells. As to the kind of experiment: Cytotoxicity, Alamar Blue cell viability assay. The class given is cell-based, human. The conditions noted are these: 24 or 48 hours incubation. How it is done: Cytotoxicity studies were performed using Human telomerase-immortalized human corneal epithelial cells (hTCEpi cells—obtained through Genon Corp., Menlo Park, CA, USA). The cells were plated at a density of 30,000 cells per well of a 96-well dish in growth media (Defined Keratinocyte Media with growth supplement, Invitrogen, Grand Island, NY, USA). After 24 hours of recovery, cells were treated with either growth media alone or growth media supplemented with 0.5% DMSO (vehicle), the indicated concentration of ATIP, or 0.5% proparacaine (Akorn, Forest Lake, IL). Cells were incubated for 24 or 48 hours at 37° C. in 5% CO2. Cell viability was assessed using an Alamar Blue Assay (Thermo Fisher, Waltham, MA, USA).
With reference to FIGS. 5A and 5B, data are plotted as the fraction of viable cells compared to growth media alone+/−S.E.M (n=3).

The test system of data set [4] is injury-sensitized dissociated rat sensory neurons. As to the kind of experiment: Patch-clamp electrophysiology, action potentials induced by depolarizing current. The class given is cell-based. How it is done:
Studies were conducted to examine the effect of Atip administration on action potentials induced by depolarizing current. Electrophysiology in injury-sensitized dissociated rat sensory neurons was recorded with patch-clamp, using methods previously described (5).
For orientation: Patch clamp records ionic current or voltage across a cell membrane.

Data set [5] concerns wild type, α2AAR knockout and α2CAR knock out mice. As to the kind of experiment: Paw withdrawal in response to strong pinch after subcutaneous plantar injection. Particulars: 5 mM subcutaneously in right plantar paw. The class given is in vivo. How it is done: Studies testing the effect of Atip were also conducted in α2 receptor subunit knock-out mice. α2AAR knockout and α2CAR knock out mice were used in the study. Animals were injected with 5 mM Atip subcutaneously in their right plantar paw, and vehicle into the left plantar paw. They then received strong pinch to the paw skin and pads on each foot. Right and left paw withdrawal in response to the pinch was assessed.

Another data set addresses T1, pseudocholinesterase (Homo sapiens, UniProt P06276).
T1 construct: hydrolyzed at the ester linkage in plasma by pseudocholinesterase; host or cells: plasma
Particulars: plasma; cited from earlier work.

T1 sequence (P06276 29-602): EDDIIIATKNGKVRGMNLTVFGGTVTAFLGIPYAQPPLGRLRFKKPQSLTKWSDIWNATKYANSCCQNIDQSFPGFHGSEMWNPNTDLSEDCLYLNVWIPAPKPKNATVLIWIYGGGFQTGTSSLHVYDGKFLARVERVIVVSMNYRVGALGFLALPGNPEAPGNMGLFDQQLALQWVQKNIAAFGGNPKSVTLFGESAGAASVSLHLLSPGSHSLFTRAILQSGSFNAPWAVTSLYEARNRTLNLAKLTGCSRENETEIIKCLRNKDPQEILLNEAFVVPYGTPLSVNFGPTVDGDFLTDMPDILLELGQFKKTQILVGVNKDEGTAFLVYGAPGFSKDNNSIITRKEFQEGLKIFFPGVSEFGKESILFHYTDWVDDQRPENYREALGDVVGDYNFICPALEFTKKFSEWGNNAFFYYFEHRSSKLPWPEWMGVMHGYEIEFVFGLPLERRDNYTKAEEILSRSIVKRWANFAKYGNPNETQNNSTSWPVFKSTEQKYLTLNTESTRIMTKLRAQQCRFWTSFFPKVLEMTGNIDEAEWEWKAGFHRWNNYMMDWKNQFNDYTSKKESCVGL

In the case of `CCN(CC)CC(=O)Nc1c(C)cccc1C` [lidocaine, Lidocaine], in [1] (200 uM, therapeutic concentration), the “efficacy of blockade compared with Atip” value is “less efficacious than the highest tested concentration of Atip, and similar to the lowest concentration of Atip tested”.
`CCC1(c2cnc[nH]2)Cc2ccccc2C1` [Atip, 4(5)-(2,3-dihydro-2-ethyl-1H-inden-2-yl)imidazole]: the “reversibility of conduction block (CAP peak and area)” value in [2] (100 ul Atip undiluted clinical dose 5 mg/ml topically over the nerve, then wash-out) is listed as “reversible”. The “conduction in large and small sensory axons” value in [2] (Atip applied to the nerve, FIGS. 2A-3B together) is reported as “strongly blocks conduction”. Moreover, the “conduction in motor axons” value in data set [3] is listed as “relative sparing of conduction”. Besides, in the data set with sensory axons, the “sensory conduction block by IV-administered Atip” value is reported as “does not itself block conduction”. For the same molecule, the “EMG of CTMR, nociceptor sensory conduction” value in the data set with small sensory axons is “blocks activity in small sensory axons”. Further, the “nerve toxicity (return of EMG)” value with small sensory axons (not washed out) is given as “does not poison the nerve”. For the same molecule, the entries for the “cells with blocked activity (less than 50% of baseline response to electrical field stimulation)” value in data set [1] (100 uM) and in [1] (300 uM) were 62% and 100%, respectively. Further, in the data set on hTCEpi cells, the “toxicity (fraction of viable cells compared to growth media alone) versus 0.5% proparacaine” value is “reduced toxicity”. Also, the “action potentials induced by depolarizing current” value in [4] is recorded as “rapidly blocked”. The resting membrane potential result in data set [4] was “does not alter the resting membrane potential”. The “withdrawal of the Atip-injected right paw on pinch” value in [5] (wild type mice), in data set [5] (α2AAR knockout mice) and in [5] (α2CAR knock out mice) was “no withdrawal of the right paw” each time.
`CCN(CC)CCOC(=O)c1ccc(N)cc1` [procaine]: on pseudocholinesterase, the “rate of hydrolysis at the ester linkage, relative” value is “about four times faster than tetracaine”.
As to `CCN(CC)CCOC(=O)c1ccc(N)cc1Cl` [2-chloroprocaine], the “rate of hydrolysis at the ester linkage, relative” value at pseudocholinesterase was “about four times faster than procaine”.
